Source: patent US8361998B2, “Compounds and their use as IKACh blockers” (AstraZeneca AB, priority 2010, dated 2013)
Structures can show the parent of a compound that is named as a salt.

Each molecule was assayed on anaesthetized rabbits subjected to vagal stimulation (assay: In vivo PD model, anaesthetized rabbits with vagal stimulation: right atrial effective refractory period (RAERP), QT).
Set-up: species or system rabbit
Description: Rabbits were anaesthetized using ketalar and domitor (2.5 and 0.07 mg/kg, respectively) as an i.v. bolus followed by a maintenance i.v. infusion (11 and 0.33 mg/kg/h, respectively) and ventilated with room air. Two percutaneous polyethylene catheter (Venflon 0.8 mm, Viggo, Helsingborg, Sweden) for administration of anaesthetics and drug infusions, respectively, were inserted into marginal veins on the right and left ear. A polyethylene catheter (Intramedic PE 160 Clay Adams, Becton Dickinson, Sparks, Md., USA) was inserted into the left carotid artery and advanced to the level of the aortic arch for blood pressure recording (by means of a pressure transducer, Peter von Berg Medizintechnik Gmbh, Kirchseeon/Englharting, Germany) and for blood sampling. For recording of right atrial electrogram and for atrial pacing, a 4F quadripolar electrophysiological recording catheters (Electrophysiology catheter-Deflectable tip, Biosense Webster Inc, Johnson & Johnson, Diamond Bar, Calif., USA) was advanced into the right jugular vein and positioned high up in the right atrium (HRA). Electrodes were advanced via introducers (4F Fast-Cath haemostasis introducer, ST. Jude Medical, DAIG Division, Inc. Minnetonka, Minn., USA) correctly positioned through fluoroscopic guidance. The effective refractory period in the right atrium (RAERP) was determined at a stimulation current strength approximately 20% above the threshold for pacing the atria. A custom-made PC-based (AstraZeneca R&D, Mölndal, Sweden) programmable stimulator and constant current pulse generator (WPI Stimulus Isolator, World Precision Instruments, Sarasota, Fla., USA) were used for stimulation at one or two predefined basic cycle lengths (S1) of for example 200 and 300 ms. A premature extra stimulus (S2) was introduced after every 10th paced basic beat with increments of 2 ms until capture. […] For vagal stimulation, both vagal nerves were ligated and cut in the cervical region and propranolol (0.5 mg/kg) was administrated as an i.v. infusion to decrease sympathetic influence. Electrodes were inserted in the middle of the right vagal nerve to stimulate the efferent vagi. The RAERP was determined without or with vagal stimulation at 50% of maximal vagal response. Subsequent infusion of compound aimed to increase the RAERP with 20 ms during the first dose of two consecutive doses. The drug infusion was followed by a washout period of approximately 30-60 min. QT prolongation was recorded from surface electrocardiography (ECG). The effect on RAERP was measured several times during infusion and washout and blood samples were taken at each measurements. Effect and plasma concentration data was analysed accounting for a concentration-effect-time delay and the unbound plasma concentration (Ceu) increasing the RAERP by 20 ms was calculated.

Structure (SMILES) | Ceu 20 ms
CCC[C@@H](CN1CCC1)N(C)C(=O)c1ccc(Cl)cc1 [Example 1.2, (S)-N-(1-(Azetidin-1-yl)pentan-2-yl)-4-chloro-N-methylbenzamide] | 0.40 µM
CCC[C@@H](CN1CCC1)N(C)C(=O)c1ccc(F)c(C)c1 [Example 1.4, (S)-N-(1-(Azetidin-1-yl)pentan-2-yl)-4-fluoro-N,3-dimethyl-benzamide] | 0.60 µM
CC(C)[C@@H](CN1CCCC1)N(C)C(=O)c1ccc(F)cc1Cl [Example 1.17, (S)-2-Chloro-4-fluoro-N-methyl-N-(3-methyl-1-(pyrrolidin-1-yl)butan-2-yl)benzamide] | 1.40 µM
Cc1cc(C(=O)N(C)[C@H](CN2CCC2)C2CC2)ccc1F [Example 4.1, (S)—N-(2-(Azetidin-1-yl)-1-cyclopropylethyl)-4-fluoro-N,3-dimethylbenzamide] | 0.74 µM
CN(C(=O)c1ccc(Br)cc1)[C@H](CN1CC(O)C1)C1CC1 [Example 4.4, (S)-4-Bromo-N-(1-cyclopropyl-2-(3-hydroxyazetidin-1-yl)ethyl)-N-methylbenzamide] | 0.75 µM
CC(C)[C@@H](CN1CCC1)N(C)C(=O)c1ccc(Cl)cc1 [Example 5.1, (S)-N-(1-(Azetidin-1-yl)-3-methylbutan-2-yl)-4-chloro-N-methylbenzamide] | 1.00 µM
CC(C)[C@@H](CN1CCC1)N(C)C(=O)c1ccc(Br)cc1.O=C(O)CCC(=O)O [Example 5.2] | 0.60 µM
Cc1cc(C(=O)N(C)[C@H](CN2CC(O)C2)C(C)C)ccc1F [Example 6.1, (S)-4-Fluoro-N-(1-(3-hydroxyazetidin-1-yl)-3-methylbutan-2-yl)-N,3-dimethylbenzamide] | 0.54 µM
CC(C)[C@@H](CN1CC(O)C1)N(C)C(=O)c1ccc(Cl)cc1 [Example 6.2, (S)-4-Chloro-N-(1-(3-hydroxyazetidin-1-yl)-3-methylbutan-2-yl)-N-methylbenzamide] | 0.40 µM
Cc1cc(C(=O)N(C)[C@H](CN2CC(O)C2)C2CC2)ccc1F [Example 7.1, (S)—N-(1-Cyclopropyl-2-(3-hydroxyazetidin-1-yl)ethyl)-4-fluoro-N,3-dimethylbenzamide] | 5.40 µM
CN(C(=O)c1ccc(Cl)cc1)[C@H](CN1CC(O)C1)C1CC1 [Example 7.2, (S)-4-Chloro-N-(1-cyclopropyl-2-(3-hydroxyazetidin-1-yl)ethyl)-N-methylbenzamide] | 1.00 µM
CN(C(=O)c1ccc(F)c(Cl)c1)[C@H](CN1CC(O)C1)C1CC1 [Example 7.3, (S)-3-Chloro-N-(1-cyclopropyl-2-(3-hydroxyazetidin-1-yl)ethyl)-4-fluoro-N-methylbenzamide] | 2.10 µM
CCC[C@@H](CN1CC(O)C1)N(C)C(=O)c1ccc(F)c(F)c1 [Example 8.1, (S)-3,4-Difluoro-N-(1-(3-hydroxyazetidin-1-yl)pentan-2-yl)-N-methylbenzamide] | 0.87 µM
CCC[C@@H](CN1CC(O)C1)N(C)C(=O)c1ccc(Cl)cc1 [Example 8.2, (S)-4-Chloro-N-(1-(3-hydroxyazetidin-1-yl)pentan-2-yl)-N-methyl-benzamide, hydrochloride] | 0.34 µM
CCC[C@@H](CN1CC(O)C1)N(C)C(=O)c1ccc(F)cc1 [Example 8.6, (S)-4-Fluoro-N-(1-(3-hydroxyazetidin-1-yl)pentan-2-yl)-N-methylbenzamide] | 2.50 µM
CC(C)[C@@H](CN1CC[C@H](O)C1)N(C)C(=O)c1ccc(Cl)cc1 [Example 10.2, 4-Chloro-N-((S)-1-((S)-3-hydroxypyrrolidin-1-yl)-3-methylbutan-2-yl)-N-methylbenzamide hemi tartrate] | 1.40 µM

Structure (SMILES) | Ceu 20 ms
Cc1cc(C(=O)N(C)[C@H](CN2CCCC2)C(C)C)ccc1F [Example 12.1, (S)-4-Fluoro-N,3-dimethyl-N-(3-methyl-1-(pyrrolidin-1-yl)butan-2-yl)benzamide-dihydroxysuccinate] | 0.68 µM
Cc1cccc(C(=O)N(C)[C@H](CN2CCCC2)C(C)C)c1 [Example 12.2, (S)-1-(2-(N,3-Dimethylbenzamido)-3-methylbutyl)pyrrolidinium 2,3-dihydroxysuccinate] | 2.20 µM
CC(C)[C@@H](CN1CCCC1)N(C)C(=O)c1ccc(F)c(Cl)c1 [Example 16.55, (S)-3-Chloro-4-fluoro-N-methyl-N-(3-methyl-1-(pyrrolidin-1-yl)butan-2-yl)benzamide] | 0.60 µM
CC(C)[C@@H](CN1CCCC1)N(C)C(=O)c1ccc(Cl)cc1 [Example 18, (S)-1-(2-(4-Chloro-N-methylbenzamido)-3-methylbutyl)pyrrolidinium chloride] | 0.70 µM
CC(C)[C@@H](CN1CCCC1)N(C)C(=O)c1ccc(Br)cc1 [Example 19, (S)-1-(2-(4-bromo-N-methylbenzamido)-3-methylbutyl)pyrrolidinium 3-carboxy-2,3-dihydroxypropanoate] | 0.34 µM
CC[C@H](C)[C@@H](CN1CC(O)C1)N(C)C(=O)c1ccc(C#N)cc1F [Example 29.7, 4-Cyano-2-fluoro-N-((2S,3S)-1-(3-hydroxyazetidin-1-yl)-3-methylpentan-2-yl)-N-methylbenzamide] | 0.79 µM
CCCC[C@@H](CN1CC(O)C1)N(C)C(=O)c1ccc(C#N)cc1 [Example 33.4, 4-Cyano-N-[(2S)-1-(3-hydroxyazetidin-1-yl)hexan-2-yl]-N-methylbenzamide] | 0.52 µM
CCCC[C@@H](CN1CC(O)C1)N(C)C(=O)c1ccc(F)cc1 [Example 33.7, 4-Fluoro-N-[(2S)-1-(3-hydroxyazetidin-1-yl)hexan-2-yl]-N-methylbenzamide] | 0.80 µM
CC(C)C[C@@H](CN1CC(O)C1)N(C)C(=O)c1ccc(F)c(F)c1 [Example 38.1, 3,4-Difluoro-N-[(2S)-1-(3-hydroxyazetidin-1-yl)-4-methylpentan-2-yl]-N-methylbenzamide] | 0.34 µM
CC(C)C[C@@H](CN1CC(O)C1)N(C)C(=O)c1ccc(Cl)cc1 [Example 38.2, 4-Chloro-N-[(2S)-1-(3-hydroxyazetidin-1-yl)-4-methylpentan-2-yl]-N-methylbenzamide] | 0.38 µM
CC(C)C[C@@H](CN1CC(O)C1)N(C)C(=O)c1ccc(C#N)cc1F [Example 38.6, 4-Cyano-2-fluoro-N-[(2S)-1-(3-hydroxyazetidin-1-yl)-4-methylpentan-2-yl]-N-methylbenzamide] | 0.72 µM
CN(C(=O)c1ccc(C#N)cc1)[C@H](CN1CC(O)C1)C1CCC1 [Example 39.2, (S)-4-Cyano-N-(1-cyclobutyl-2-(3-hydroxyazetidin-1-yl)ethyl)-N-methylbenzamide] | 0.28 µM
CC[C@@H](CN1CC(O)C1)N(C)C(=O)c1ccc(Cl)cc1 [Example 39.12, (S)-4-Chloro-N-(1-(3-hydroxyazetidin-1-yl)butan-2-yl)-N-methylbenzamide] | 2.06 µM
CN(C(=O)c1ccc(Cl)cc1)[C@H](CN1CC(O)C1)C1CCC1 [Example 39.14, (S)-4-Chloro-N-(1-cyclobutyl-2-(3-hydroxyazetidin-1-yl)ethyl)-N-methylbenzamide] | 0.10 µM
Cc1cc(C(=O)N(C)[C@H](CN2CC(O)C2)C2CCC2)ccc1F [Example 39.16, (S)—N-(1-Cyclobutyl-2-(3-hydroxyazetidin-1-yl)ethyl)-4-fluoro-N,3-dimethylbenzamide] | 0.24 µM
